Experimental data taken from patent publication US20110076318A1, “RETINOID-CONTAINING SUSTAINED RELEASE INTRAOCULAR IMPLANTS AND RELATED MATTERS” (Allergan, Inc., priority 2004, published 2011).
≈ marks a conversion by molar mass, not a printed value. Where two headings read alike, the source gives them in different places.

Experiments:
[1] = Measured lipophilicity of tazarotene; type: physicochemical
Solubility of tazarotene = type: physicochemical
Experimental: This was due to the extremely low solubility of Tazarotene in 0.9% saline, which was determined to be less than 1 μg/mL. Therefore, it was difficult to see any differences in the release profiles of different formulations. Work began to search for a release medium that would differentiate the release profiles of all formulations.

[2] = Plasma concentrations after topical and oral dosing of tazarotene; type: in vivo, patients; details: for Cmax: human, po, read-out: TAZAROTENE Cmax
Experimental: […] For the most part tazarotene is not observed in the plasma after topical or oral administration. Facile hydrolysis by pre-systemic metabolism rapidly generates the free acid. […] It is important to note that these are plasma concentrations and the eye plasma distribution ratio is 0.02. Over 90% of all patients in the phase 3 clinical trials had concentrations of the parent compound, tazarotene, <1 ng/mL with the highest being 6 ng/mL.
Oral delivery of 1.1 mg and 6 mg multiple doses led to 28.9 ng/mL and 227 ng/ml peak levels with a 2.56 ng/mL trough. This corresponds to a maximum possible 4 ng/mL ocular level for the highest dose. FIG. 11 depicts the tissue distribution of tazarotenic acid. The eyes show a 2% tissue/plasma ration in the rat. It should be noted that tazarotenic acid is 99% protein bound and distribution is limited to unbound drug.

[3] = system: PVR induced by human RPE cells; assay: PVR model with retinoid implants, Fastenberg scale; type: in vivo
From the text: PLA and PLGA implants 1.5 mm in diameter and 3 mm in length were fabricated by extrusion of the polymer drug blend. Tazarotenic acid (the free acid of Tazarotene) Tazarotene and 13-cis-retinoic acid were loaded into the implants at 10% concentrations. Briefly, pigmented rabbits were vitrectomized followed by intravitreal injection of 500,000 human RPE cells. After injection of the RPE cells the retinoid implants were placed into the vitreous and anchored to the sclera with the suture used to close the sclerotomy.
The eyes were examined weekly for 4 weeks. Severity of PVR was graded based on the Fastenberg scale. At 4 weeks gross pathology and limited histopathology were conducted.

[4] = Intraocular pharmacokinetics after single intravitreal injection of Tazarotene; type: in vivo, female New Zealand White rabbits; details: rabbit; for concentration at 2 hr / concentration at 24 hr / half-life: female, New Zealand White; for concentration at 2 hr / concentration at 24 hr: other: intravitreal injection; for concentration at 2 hr: 2 hr post dose; for concentration at 24 hr: 24 hr post dose; for half-life: topical or ocular
Experimental: The intraocular pharmacokinetics of Tazarotene was assessed in female New Zealand White rabbits following a single intravitreal injection. The rabbits were dosed with bilateral intravitreal injections of Tazarotene (1250 ng in 50 μL). At 0.5, 1, 2, 4, 8, 12, and 24 hr post dose, animals were sacrificed and the aqueous humor, vitreous humor, and retina samples were analyzed. […] The Tazarotene concentration in the retina was close to its vitreal concentration at all time points, declining from 859±131 ng/g at 2 hr post dose to 93.1±28.9 ng/g by 24 hr post dose. […] It was shown that Tazarotene has a relatively long intravitreal half-life and that the retinal concentration parallel the vitreous when given as a neat injection. However, despite a very low solubility the clearance of Tazarotene from the retina is fast enough to require sustained release for extended duration of action.

photoreceptors = assay: Rhodopsin mutant transgenic rat models of retinal degeneration; type: in vivo, Transgenic S334ter rats; details: i.p., S334ter line 3 and line 4
Experimental: The objective of this study was to determine the efficacy of various retinoids in preventing retinal damage or improving retinal survival in rhodopsin mutant transgenic rat models of retinal degeneration. The overall goal of the research was to investigate potential photoreceptor survival in mutant rhodopsin transgenic rats using RAR α, RAR β γ, and RXR retinoid agonists.
The experimental design was straightforward. A compound was injected daily to line 3 and every two days for line 4 animals (i.p.) for a given period and animals were sacrificed at the end by CO2 overdose followed immediately by vascular perfusion of mixed aldehydes. Two litters of rats were used:
1. Transgenic S334ter-3 rats. Line 3 bears a rhodopsin mutation S334ter. […] Injection of a compound will be given daily from PD 6 (post-delivery day 6) to PD 20.
2. Transgenic S334ter-4 rats. Line 4 bears a rhodopsin mutation S334ter. Animals of this line experience a 80% loss of photoreceptors by 60 days after birth. The ONL is reduced to one row of nuclei. Injection of a compound will be given every other day from PD 25 to PD 60.
For the line 3 animals, treatment started at PD 6 and the endpoint was PD 20. For the line 4, injection began at PD 25 and ended at PD60 when eyes were harvested. Eyes were embedded in an Epon/Araldite mixture for sectioning at 1 μm thickness along the vertical meridian. Protection of photoreceptors was be evaluated by counting the rows of nuclei in the outer nuclear layer.
The outcome was a measure of retinal outer layer thickness, and cytology over an 8 week period. Compounds included the retinoid agonists tazarotene (RAR β γ), AGN 195183 (RAR α) and AGN 194204 (RXR). […] This is a fairly harsh model and as such the modest improvement by tazarotene is quite significant.

[5] = system: retinal function and structure; assay: Blue light retinal degeneration model; type: in vivo, Sprague dawley rats; details: daily oral doses for five days before 12000 lux blue light, eight hours
Experimental: AGN 194310, AGN 194204, tazarotene and AGN 199852 were evaluated in the blue light retinal degeneration model. Sprague dawley rats were pretreated for five days with daily oral doses of the retinoids. The rats were then exposed to high intensity light, 12000 lux blue fluorescent, for eight hours. Five days post exposure the retinal function was assessed by full flash ERG and structure by outer nuclear layer thickness.

[6] = retina, 1250 ng, read-out: Tazarotene concentration in the retina
[7] = vitreous humor, 1250 ng intravitreal, read-out: Tazarotene concentration in the vitreous humor

Structure (SMILES): CCOC(=O)c1ccc(C#Cc2ccc3c(c2)C(C)(C)CCS3)nc1 [Tazarotene, Ethyl 6-[(4,4-dimethylthiochroman-6-yl)ethynyl]nicotinate]
- logP [1]: 4.3
- logD ([1]; pH 7.4, value marked measured in Table 3, read-out: log D pH 7.4 (measured)): 4.3
- solubility (Solubility of tazarotene; 0.9% saline, saline or isotonic, read-out: solubility in 0.9% saline): < 1 µg/mL
- solubility (Solubility of tazarotene; water, read-out: solubility in water): 1 µg/mL (≈ 2.85 µM)
- Cmax ([2]; plasma, 1.1 mg/Day, plasma, Oral 1.1 mg/Day, in 95%): < 0.1 ng/mL
- Cmax ([2]; plasma, 3 mg/Day, plasma, Oral 3.0 mg/Day): < 0.1 ng/mL
- Cmax ([2]; plasma, 6 mg/Day, plasma, Oral 6.0 mg/Day): < 0.1 ng/mL
- highest plasma concentration of tazarotene in phase 3 clinical trials ([2]; in vivo): 6 ng/mL
- plasma concentration of tazarotene in phase 3 clinical trials ([2]; over 90% of all patients): < 1 ng/mL
- TAZAROTENE Cmax ([2]; plasma, Topical Gel 0.1%, for >90%): BLQ for >90%
- safety by gross pathology and limited histopathology ([3]; at 4 weeks): good safety profile
- eyes progressed to traction retinal detachment ([3]; at 28 days, 10% loaded PLA/PLGA implants, intravitreal): 12%
- concentration at 2 hr [4, 6]: 859 ± 131 ng/g
- concentration at 24 hr [4, 6]: 93.1 ± 28.9 ng/g
- half-life ([4]; retina, 1250 ng, read-out: mean t1/2 of elimination from the retina (converted)): 7.63 h
- concentration at 2 hr [4, 7]: 578 ± 77 ng/g
- concentration at 24 hr [4, 7]: 115 ± 33 ng/g
- half-life ([4]; vitreous humor, 1250 ng, read-out: mean half-life (t1/2) in vitreous humor (converted)): 9.22 h
- mean vitreal clearance (Cl) ([4]; in vivo): 0.123 mL/h
- vitreal clearance ([4]; in vivo): 2.95 mL/day
- protection of photoreceptors (outer nuclear layer) (photoreceptors): only compound to show efficacy
- protection of retinal function (ERG) and structure (outer nuclear layer thickness) [5]: significantly protect both retinal function and structure
